Experimental data reported in ChEMBL document CHEMBL1201862, “PubChem BioAssay data set” (2004).
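Protocol summary: plate cells (96-well), add compound at 5 concentrations, incubate 48 h, interpolate endpoints linearly. GI50 is the concentration that inhibits growth by half.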 Activity calls are given as the source filed them. No stated cut-off is given here; in the data, active = GI50 up to about 1.1 µM and inactive = higher.

Experiments:
Experiment in all cases: growth of human tumour cells (NCI), 48 h
HCC 2998 = tested on: HCC 2998
CCRF-CEM = tested on: CCRF-CEM
KM12 = tested on: KM12
OVCAR-3 = tested on: OVCAR-3
RPMI-8226 = tested on: RPMI-8226
SW-620 = tested on: SW-620
SR = tested on: SR
SNB-19 = tested on: SNB-19
RXF 393 = tested on: RXF 393
Hs-578T = tested on: Hs-578T
A549 = tested on: A549
HT-29 = tested on: HT-29
MOLT-4 = tested on: MOLT-4
HOP-62 = tested on: HOP-62
SF-295 = tested on: SF-295
SK-MEL-28 = tested on: SK-MEL-28
SK-OV-3 = tested on: SK-OV-3
DU-145 = tested on: DU-145
TK-10 = tested on: TK-10
M14 = tested on: M14
NCI-H460 = tested on: NCI-H460
OVCAR-5 = tested on: OVCAR-5
OVCAR-8 = tested on: OVCAR-8
MDA-N = tested on: MDA-N
IGROV-1 = tested on: IGROV-1
A498 = tested on: A498
NCI-H226 = tested on: NCI-H226
K562 = tested on: K562
UACC-257 = tested on: UACC-257
U-251 = tested on: U-251
SNB-75 = tested on: SNB-75
PC-3 = tested on: PC-3
ACHN = tested on: ACHN
SF-539 = tested on: SF-539
BT-549 = tested on: BT-549
Malme-3M = tested on: Malme-3M
SK-MEL-2 = tested on: SK-MEL-2
LOX IMVI = tested on: LOX IMVI
HCT-15 = tested on: HCT-15
HOP-92 = tested on: HOP-92
MDA-MB-231 = tested on: MDA-MB-231
UO-31 = tested on: UO-31
786-0 = tested on: 786-0
HCT-116 = tested on: HCT-116
MCF7 = tested on: MCF7
EKVX = tested on: EKVX
NCI-H23 = tested on: NCI-H23
UACC-62 = tested on: UACC-62
HL-60 = tested on: HL-60
MDA-MB-435 = tested on: MDA-MB-435
SN12C = tested on: SN12C
SF-268 = tested on: SF-268
SK-MEL-5 = tested on: SK-MEL-5
T47D = tested on: T47D

For CC1(CCC2C=CCC2)CCCNC1=S (centres undefined), the GI50 (HCC 2998) was > 10 µM (inactive), the GI50 (CCRF-CEM) was > 10 µM (inactive) and the GI50 (KM12) was > 10 µM (inactive). For the same molecule, the GI50 (OVCAR-3) was > 10 µM (inactive), the GI50 (RPMI-8226) was > 10 µM (inactive) and the GI50 (SW-620) was > 10 µM (inactive). The GI50 (SR) was > 10 µM (inactive), the GI50 (SNB-19) was > 10 µM (inactive) and the GI50 (RXF 393) was > 10 µM (inactive). For the same molecule, the GI50 (Hs-578T) was > 10 µM (inactive), the GI50 (A549) was > 10 µM (inactive) and the GI50 (HT-29) was > 10 µM (inactive). For the same molecule, the GI50 (MOLT-4) was > 10 µM (inactive), the GI50 (HOP-62) was > 10 µM (inactive) and the GI50 (SF-295) was > 10 µM (inactive). For the same molecule, the GI50 (SK-MEL-28) was > 10 µM (inactive), the GI50 (SK-OV-3) was > 10 µM (inactive) and the GI50 (DU-145) was > 10 µM (inactive). For the same molecule, the GI50 (TK-10) was > 10 µM (inactive), the GI50 (M14) was > 10 µM (inactive) and the GI50 (NCI-H460) was > 10 µM (inactive). For the same molecule, the GI50 (OVCAR-5) was > 10 µM (inactive), the GI50 (OVCAR-8) was > 10 µM (inactive) and the GI50 (MDA-N) was > 10 µM (inactive). For the same molecule, the GI50 (IGROV-1) was > 10 µM (inactive), the GI50 (A498) was > 10 µM (inactive) and the GI50 (NCI-H226) was > 10 µM (inactive). The GI50 (K562) was > 10 µM (inactive), the GI50 (UACC-257) was > 10 µM (inactive) and the GI50 (U-251) was > 10 µM (inactive). For the same molecule, the GI50 (SNB-75) was > 10 µM (inactive), the GI50 (PC-3) was > 10 µM (inactive) and the GI50 (ACHN) was > 10 µM (inactive). The GI50 (SF-539) was > 10 µM (inactive), the GI50 (BT-549) was > 10 µM (inactive) and the GI50 (Malme-3M) was > 10 µM (inactive). The GI50 (SK-MEL-2) was > 10 µM (inactive), the GI50 (LOX IMVI) was > 10 µM (inactive) and the GI50 (HCT-15) was > 10 µM. The GI50 (HOP-92) was > 10 µM (inactive), the GI50 (MDA-MB-231) was > 10 µM (inactive) and the GI50 (UO-31) was > 10 µM (inactive). For the same molecule, the GI50 (786-0) was > 10 µM (inactive), the GI50 (HCT-116) was > 10 µM (inactive) and the GI50 (MCF7) was > 10 µM (inactive). The GI50 (EKVX) was > 10 µM (inactive), the GI50 (NCI-H23) was > 10 µM (inactive) and the GI50 (UACC-62) was > 10 µM (inactive). For the same molecule, the GI50 (HL-60) was > 10 µM (inactive), the GI50 (MDA-MB-435) was > 10 µM (inactive) and the GI50 (SN12C) was > 10 µM (inactive). The GI50 (SF-268) was > 10 µM (inactive), the GI50 (SK-MEL-5) was > 10 µM (inactive) and the GI50 (T47D) was > 10 µM (inactive).
